Target: T1, apelin receptor (APJ) (Homo sapiens, UniProt P35414)
T1 sequence (P35414 1-380): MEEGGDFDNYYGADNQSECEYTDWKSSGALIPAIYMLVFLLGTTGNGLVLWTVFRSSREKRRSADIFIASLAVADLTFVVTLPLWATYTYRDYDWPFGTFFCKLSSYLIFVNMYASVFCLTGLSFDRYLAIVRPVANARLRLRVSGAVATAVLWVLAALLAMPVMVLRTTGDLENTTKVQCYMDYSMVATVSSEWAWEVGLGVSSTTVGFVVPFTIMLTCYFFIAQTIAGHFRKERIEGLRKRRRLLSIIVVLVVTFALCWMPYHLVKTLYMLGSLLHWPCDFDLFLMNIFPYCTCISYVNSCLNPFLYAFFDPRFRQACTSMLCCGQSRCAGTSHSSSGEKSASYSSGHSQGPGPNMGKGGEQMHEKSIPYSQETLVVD
Assay: in vitro activity as apelin agonists (methods of Giddings et al.; Apelin-13 positive control)
Type: cell-based
Conditions: apelin agonist activity, average; read-out: EC50 (nM) Ave
Description: The compounds above were studied for their in vitro activity as apelin agonists using the methods described by Giddings et al. Giddings et al., 2010 Int J High Thro Screen. 1:39-47, the contents of which are hereby incorporated by reference in its entirety. The methods described in Giddings et al. were used as described and Apelin-13 was a positive control.

| EC50 [nM] | SMILES |
| --- | --- |
| 40 | O=C(C[C@H](CCN1CCCCC1)NC(=O)c1nc(C2CCCC2)n(-c2ccccc2C(F)(F)F)n1)NC1CCC1 [compound 444, (3S)-N-cyclobutyl-3-({5-cyclopentyl-1-[2-(trifluoromethyl)phenyl]-1H-1,2,4-triazol-3-yl}formamido)-5-(piperidin-1-yl)pentanamide] |
| 754 | COCCN(C)C(=O)[C@H](CCc1ccccc1)NC(=O)c1nc(C2CCCC2)n(-c2ccccc2C(F)(F)F)n1 [compound 543, (2S)-2-({5-cyclopentyl-1-[2-(trifluoromethyl)phenyl]-1H-1,2,4-triazol-3-yl}formamido)-N-(2-methoxyethyl)-N-methyl-4-phenylbutanamide] |
| 588 | CN(C(=O)C[C@H](CCN1CCCC(F)(F)C1)N(C)C(=O)c1nc(C2CCCC2)n(-c2ccccc2C(F)(F)F)n1)c1nccs1 [compound 474, (3S)-3-(1-{5-cyclopentyl-1-[2-(trifluoromethyl)phenyl]-1H-1,2,4-triazol-3-yl}-N-methylformamido)-5-(3,3-difluoropiperidin-1-yl)-N-methyl-N-(1,3-thiazol-2-yl)pentanamide] |
| 8.3 | O=C(C[C@H](CCN1CCCC(F)(F)C1)NC(=O)c1nc(C2CCCC2)n(-c2ccccc2C(F)(F)F)n1)NC1CCC1 [compound 454, (3S)-N-cyclobutyl-3-({5-cyclopentyl-1-[2-(trifluoromethyl)phenyl]-1H-1,2,4-triazol-3-yl}formamido)-5-(3,3-difluoropiperidin-1-yl)pentanamide] |
| 13 | O=C(O)C[C@H](CCN1CCCC(F)(F)C1)NC(=O)c1cn(-c2ccccc2C(F)(F)F)c(C2CCCC2)n1 [compound 617, (3S)-3-({2-cyclopentyl-1-[2-(trifluoromethyl)phenyl]-1H-imidazol-4-yl}formamido)-5-(3,3-difluoropiperidin-1-yl)pentanoic acid] |
| 9 | O=C(C[C@H](CCN1CCCC(F)(F)C1)NC(=O)c1nc(-c2ccccc2C(F)(F)F)n(C2CCCC2)n1)NC1CCC1 [compound 453, (3S)-N-cyclobutyl-3-({1-cyclopentyl-5-[2-(trifluoromethyl)phenyl]-1H-1,2,4-triazol-3-yl}formamido)-5-(3,3-difluoropiperidin-1-yl)pentanamide] |
| > 10000 | CC(C)Cc1c(-c2ccccc2Cl)nc(C(=O)N[C@@H](CCN2CCCC(F)(F)C2)CC(=O)O)n1C [compound 476, (3S)-3-{[4-(2-chlorophenyl)-1-methyl-5-(2-methylpropyl)-1H-imidazol-2-yl]formamido}-5-(3,3-difluoropiperidin-1-yl)pentanoic acid] |
| 8 | O=C(N[C@@H](CCN1CCCC(F)(F)C1)Cc1nnn[nH]1)c1cn(-c2ccccc2C(F)(F)F)c(C2CCCC2)n1 [compound 620] |
| 152 | O=C(O)C[C@H](CCN1CCCC(F)(F)C1)NC(=O)c1nc(-c2ncccc2C(F)(F)F)n(C2CCCC2)n1 [compound 512, (3S)-3-({1-cyclopentyl-5-[3-(trifluoromethyl)pyridin-2-yl]-1H-1,2,4-triazol-3-yl}formamido)-5-(3,3-difluoropiperidin-1-yl)pentanoic acid] |
| 384 | O=C(O)C[C@H](CCN1CCCC(F)(F)C1)NC(=O)c1nc(-c2ccccc2C(F)(F)F)n(C2CCCC2)n1 [compound 462, (3S)-3-({1-cyclopentyl-5-[2-(trifluoromethyl)phenyl]-1H-1,2,4-triazol-3-yl}formamido)-5-(3,3-difluoropiperidin-1-yl)pentanoic acid] |
| 310 | O=C(C[C@H](CCN1CCCCC1)NC(=O)c1nc(-c2ccccc2C(F)(F)F)n(C2CCCC2)n1)NC1CCC1 [compound 446, (3S)-N-cyclobutyl-3-({1-cyclopentyl-5-[2-(trifluoromethyl)phenyl]-1H-1,2,4-triazol-3-yl}formamido)-5-(piperidin-1-yl)pentanamide] |
| > 10000 | CC(C)Cc1c(-c2ccccc2Cl)nc(C(=O)N[C@@H](CCN2CCCC(F)(F)C2)CC(=O)N(C)c2nccs2)n1C [compound 477, (3S)-3-{[4-(2-chlorophenyl)-1-methyl-5-(2-methylpropyl)-1H-imidazol-2-yl]formamido}-5-(3,3-difluoropiperidin-1-yl)-N-methyl-N-(1,3-thiazol-2-yl)pentanamide] |
| > 10000 | O=C(O)C[C@H](CCN1CCCC(F)(F)C1)NC(=O)c1nc(C2CCCC2)n(-c2cccnc2C(F)(F)F)n1 [compound 513, (3S)-3-({5-cyclopentyl-1-[2-(trifluoromethyl)pyridin-3-yl]-1H-1,2,4-triazol-3-yl}formamido)-5-(3,3-difluoropiperidin-1-yl)pentanoic acid] |
| 74 | O=C(O)C[C@H](CCN1CCC(F)(F)C1)NC(=O)c1nc(C2CCCC2)n(-c2ccccc2C(F)(F)F)n1 [compound 586, (3S)-3-({5-cyclopentyl-1-[2-(trifluoromethyl)phenyl]-1H-1,2,4-triazol-3-yl}formamido)-5-(3,3-difluoropyrrolidin-1-yl)pentanoic acid] |
| 22 | CN(C(=O)C[C@H](CCN1CCCC(F)(F)C1)NC(=O)c1nc(C2CCCC2)n(-c2ccccc2C(F)(F)F)n1)c1nccs1 [compound 455, (3S)-3-({5-cyclopentyl-1-[2-(trifluoromethyl)phenyl]-1H-1,2,4-triazol-3-yl}formamido)-5-(3,3-difluoropiperidin-1-yl)-N-methyl-N-(1,3-thiazol-2-yl)pentanamide] |
| 46 | CN(C(=O)C[C@H](CCN1CCCC(F)(F)C1)NC(=O)c1cn(-c2ccccc2C(F)(F)F)c(C2CCCC2)n1)c1nccs1 [compound 473, (3S)-3-({2-cyclopentyl-1-[2-(trifluoromethyl)phenyl]-1H-imidazol-4-yl}formamido)-5-(3,3-difluoropiperidin-1-yl)-N-methyl-N-(1,3-thiazol-2-yl)pentanamide] |
| 323 | O=C(C[C@H](CCN1CCCC(F)(F)C1)NC(=O)c1nc(C2CCCC2)n(-c2cccnc2C(F)(F)F)n1)NC1CCC1 [compound 531, (3S)-N-cyclobutyl-3-({5-cyclopentyl-1-[2-(trifluoromethyl)pyridin-3-yl]-1H-1,2,4-triazol-3-yl}formamido)-5-(3,3-difluoropiperidin-1-yl)pentanamide] |
| > 10000 | COCCN(C)C(=O)[C@H](CCc1ccccc1)NC(=O)c1nc(-c2ccccc2C(F)(F)F)n(C2CCCC2)n1 [compound 569, (2S)-2-({1-cyclopentyl-5-[2-(trifluoromethyl)phenyl]-1H-1,2,4-triazol-3-yl}formamido)-N-(2-methoxyethyl)-N-methyl-4-phenylbutanamide] |
| 2540 | O=C(C[C@H](CCN1CCCC(F)(F)C1)NC(=O)c1nc(-c2cccnc2C(F)(F)F)n(C2CCCC2)n1)NC1CCC1 [compound 532, (3S)-N-cyclobutyl-3-({1-cyclopentyl-5-[2-(trifluoromethyl)pyridin-3-yl]-1H-1,2,4-triazol-3-yl}formamido)-5-(3,3-difluoropiperidin-1-yl)pentanamide] |
| 48 | CN(C(=O)C[C@H](CCN1CCCC(F)(F)C1)NC(=O)c1nc(-c2ccccc2C(F)(F)F)n(C2CCCC2)n1)c1nccs1 [compound 456, (3S)-3-({1-cyclopentyl-5-[2-(trifluoromethyl)phenyl]-1H-1,2,4-triazol-3-yl}formamido)-5-(3,3-difluoropiperidin-1-yl)-N-methyl-N-(1,3-thiazol-2-yl)pentanamide] |
| > 10000 | CC(C)Cc1c(-c2ccccc2Cl)nc(C(=O)N[C@@H](CCN2CCCC(F)(F)C2)CC(=O)NC2CCC2)n1C [compound 478, (3S)-3-{[4-(2-chlorophenyl)-1-methyl-5-(2-methylpropyl)-1H-imidazol-2-yl]formamido}-N-cyclobutyl-5-(3,3-difluoropiperidin-1-yl)pentanamide] |
